Laboratory results: ChEMBL document CHEMBL3397013, “Target engagement in lead generation” (Bioorg Med Chem Lett, 2015)
Values belong to the compound of their own block, whether it stands above or below them.

Experiments:
Rattus norvegicus [1] = assay: Binding affinity to 5HT1A receptor in Sprague-Dawley rat at 0.3 to 10 mg/kg, po after 2 to 8 hrs by PET imaging method; type: functional, organism-based; set-up: route oral
Rattus norvegicus [2] = assay: Induction of prolongation of micturition interval in orally dosed Sprague-Dawley rat model of 8-OH-DPAT induced overactive bladder by cystometric study; type: functional; conditions: po, read-out: MED
[3] = molecular target: T1, Tyrosine-protein kinase ITK/TSK (Homo sapiens, UniProt Q08881); assay: Inhibition of human ITK
T1 sequence (Q08881 whole entry): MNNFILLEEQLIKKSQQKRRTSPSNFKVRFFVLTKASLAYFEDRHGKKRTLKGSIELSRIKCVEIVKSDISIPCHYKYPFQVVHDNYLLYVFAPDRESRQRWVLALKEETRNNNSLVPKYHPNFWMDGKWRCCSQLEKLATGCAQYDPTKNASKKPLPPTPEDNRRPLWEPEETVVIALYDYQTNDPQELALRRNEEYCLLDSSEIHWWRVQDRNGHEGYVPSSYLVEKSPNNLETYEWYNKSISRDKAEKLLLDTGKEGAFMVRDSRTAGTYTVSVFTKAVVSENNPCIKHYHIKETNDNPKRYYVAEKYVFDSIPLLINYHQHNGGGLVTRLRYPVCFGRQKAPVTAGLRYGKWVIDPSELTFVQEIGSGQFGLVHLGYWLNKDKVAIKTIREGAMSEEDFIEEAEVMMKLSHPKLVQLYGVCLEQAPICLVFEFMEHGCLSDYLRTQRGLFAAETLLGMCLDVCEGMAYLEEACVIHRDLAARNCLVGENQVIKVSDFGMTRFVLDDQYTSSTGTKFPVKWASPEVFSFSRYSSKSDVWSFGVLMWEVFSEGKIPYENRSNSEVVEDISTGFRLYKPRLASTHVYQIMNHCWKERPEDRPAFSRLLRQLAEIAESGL

[4] = molecular target: T2, Tyrosine-protein kinase ITK/TSK (Homo sapiens) (UniProt Q08881); assay: Inhibition of human ITK assessed as ratio of Kinact to Ki
T2 sequence (whole entry): T1 sequence (Q08881 whole entry)

Lung [5] = assay: Drug level in rat lung at 2.3 mg/kg dosed via inhalation measured post perfusion; type: ADME, organism-based; set-up: dose 2.3 mg/kg; conditions: in vivo, inhaled_or_intranasal, read-out: Drug uptake
Lung [6] = assay: Drug level in rat lung at 2.3 mg/kg dosed via inhalation measured post cell suspension; type: ADME, organism-based; set-up: dose 2.3 mg/kg; conditions: in vivo, inhaled_or_intranasal, read-out: Drug uptake
[7] = molecular target: Tyrosine-protein kinase BTK (Homo sapiens, UniProt Q06187); assay: Inhibition of BTK (unknown origin) using ATP and Y5 Sox15 substrate mix incubated for 30 mins by fluorescence based assay
[8] = molecular target: cAMP and cAMP-inhibited cGMP 3',5'-cyclic phosphodiesterase 10A (Homo sapiens, UniProt Q9Y233); assay: Inhibition of human PDE10A
[9] = Inhibition of human PDE isoforms

Chain of Tyrosine-protein kinase BTK (Q06187 whole entry): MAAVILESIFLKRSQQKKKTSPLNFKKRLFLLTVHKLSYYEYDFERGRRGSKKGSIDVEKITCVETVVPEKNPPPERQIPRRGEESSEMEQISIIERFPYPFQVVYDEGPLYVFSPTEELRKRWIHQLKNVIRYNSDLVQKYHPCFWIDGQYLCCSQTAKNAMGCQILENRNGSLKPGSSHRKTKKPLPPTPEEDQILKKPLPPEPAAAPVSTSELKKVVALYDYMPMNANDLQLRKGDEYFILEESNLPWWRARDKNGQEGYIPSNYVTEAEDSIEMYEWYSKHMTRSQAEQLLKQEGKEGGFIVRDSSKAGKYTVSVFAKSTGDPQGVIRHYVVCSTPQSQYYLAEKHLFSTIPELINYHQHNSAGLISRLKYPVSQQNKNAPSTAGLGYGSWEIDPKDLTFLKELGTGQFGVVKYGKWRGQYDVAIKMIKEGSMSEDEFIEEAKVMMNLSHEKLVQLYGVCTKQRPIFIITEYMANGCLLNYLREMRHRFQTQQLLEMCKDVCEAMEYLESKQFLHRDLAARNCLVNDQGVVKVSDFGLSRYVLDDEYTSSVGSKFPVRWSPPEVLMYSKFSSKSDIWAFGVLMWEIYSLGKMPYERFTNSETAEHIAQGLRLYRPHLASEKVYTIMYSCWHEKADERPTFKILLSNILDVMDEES
Chain of cAMP and cAMP-inhibited cGMP 3',5'-cyclic phosphodiesterase 10A (Q9Y233 whole entry, canonical isoform): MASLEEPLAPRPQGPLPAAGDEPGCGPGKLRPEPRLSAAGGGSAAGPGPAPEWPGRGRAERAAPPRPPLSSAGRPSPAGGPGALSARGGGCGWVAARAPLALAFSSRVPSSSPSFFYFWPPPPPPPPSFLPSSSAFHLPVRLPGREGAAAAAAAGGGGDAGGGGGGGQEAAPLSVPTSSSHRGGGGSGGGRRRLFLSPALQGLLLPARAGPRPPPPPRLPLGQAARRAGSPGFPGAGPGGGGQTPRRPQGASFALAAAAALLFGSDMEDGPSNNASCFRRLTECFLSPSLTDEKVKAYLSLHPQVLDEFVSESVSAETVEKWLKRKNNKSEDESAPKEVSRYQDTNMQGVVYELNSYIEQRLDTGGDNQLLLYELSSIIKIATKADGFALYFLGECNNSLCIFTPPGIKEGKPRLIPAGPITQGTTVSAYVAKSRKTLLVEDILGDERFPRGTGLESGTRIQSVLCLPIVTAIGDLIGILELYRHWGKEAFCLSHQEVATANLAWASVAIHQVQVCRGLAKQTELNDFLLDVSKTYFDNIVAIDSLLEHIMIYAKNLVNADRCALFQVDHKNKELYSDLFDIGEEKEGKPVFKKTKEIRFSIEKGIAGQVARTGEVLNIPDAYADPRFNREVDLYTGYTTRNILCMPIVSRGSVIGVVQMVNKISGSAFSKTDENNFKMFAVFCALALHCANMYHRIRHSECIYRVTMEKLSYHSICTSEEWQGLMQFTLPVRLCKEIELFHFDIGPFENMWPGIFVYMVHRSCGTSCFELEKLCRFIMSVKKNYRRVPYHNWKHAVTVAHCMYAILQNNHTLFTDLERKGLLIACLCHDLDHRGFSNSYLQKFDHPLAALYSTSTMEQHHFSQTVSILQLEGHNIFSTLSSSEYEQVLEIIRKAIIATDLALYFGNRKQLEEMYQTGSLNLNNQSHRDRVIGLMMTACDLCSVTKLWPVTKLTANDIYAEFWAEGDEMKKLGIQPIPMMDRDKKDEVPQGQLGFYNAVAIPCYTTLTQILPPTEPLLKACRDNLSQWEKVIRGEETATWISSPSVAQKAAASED

EC50 (Rattus norvegicus [1]): 5.4 nM
SMILES: CNC(=O)c1ccc2ccn(C3CCN(CCc4c(OC)ccc5c4OC(C)(C)CC5=O)CC3)c2c1.O=C(O)/C=C/C(=O)O
minimal effective dose (Rattus norvegicus [2]): 0.1 mg/kg

IC50 [3]: 5 nM
Ratio [4]: 520000 M⁻¹ s⁻¹
concentration (Lung [5]): 6 µM
concentration (Lung [6]): 0.008 µM
SMILES: C=CC(=O)N1CC[C@H](Nc2cc(CN[C@@H](C)C(C)(C)C)cc(Nc3nc4cccnc4s3)n2)C1

IC50 [7]: 0.5 nM
SMILES: C=CC(=O)Nc1cccc(N(C)c2nc(Nc3cccc(OCCCN(C)C(=O)CCCC(=O)NCCCOCCOCCOCCCNC(=O)CCCC[C@H]4SC[C@H]5NC(=O)N[C@H]54)c3)ncc2C)c1

IC50 [8]: 0.06 nM
IC50 [9]: > 1000 nM
SMILES: Cc1nc2ccccc2nc1-c1cc2nc(N3CC[C@@H](F)C3)cc(N([11CH3])C3CCOCC3)n2n1
